Consider 20 compounds from US20170334899A1, “AMINO-SUBSTITUTED ISOTHIAZOLES” (Bayer Pharma Aktiengesellschaft, priority 2014, published 2017).

Experiment [1] has as its system human cervical tumor cell line HeLa (ATCC CCL-2). Briefly: SAC-Formation - Nocodazole-Induced Assay. The format is cell-based. The following applies: Homo sapiens, HeLa, 24 h, HeLa cells, nocodazole 0.1 μg/ml together with test compound, decrease of mitotic cells (phospho-histone H3 Ser10). The gist of the method: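 Loss of phospho-histone H3 Ser10-positive cells, counted against Hoechst-stained nuclei by high-content imaging, marked mitotic breakthrough. Compounds (0.005–20 μM, 0.5% DMSO) were co-dosed with 0.1 μg/ml nocodazole onto HeLa cells for 24 h at 37 °C. Curves were fitted with a four-parameter Hill equation.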

Experiment [2] has the same test system. Put plainly: SAC-Formation - Paclitaxel-Induced Assay. Type of experiment: cell-based. The following applies: Homo sapiens, HeLa, 24 h, HeLa cells, paclitaxel 0.05 μM, test range 0.005 μM-20 μM, read-out: IC50 [mol/l] SAC-Formation - Paclitaxel-Induced Assay. The gist of the method:
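Read-out is high-content imaging of anti-phospho-H3 Ser10 (mitosis) and Hoechst 33342 (DNA, cell number), with decreased mitotic fraction marking checkpoint breakthrough. Compounds (0.005–20 μM) and 0.05 μM paclitaxel co-added to overnight-plated HeLa for 24 h at 37° C; four-parameter Hill fit.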

As to `Cc1nsc(Nc2cnc(C(F)(F)F)cn2)c1C(=O)Nc1ccc(F)c(OC[C@H]2CCCN(CC(F)(F)F)C2)c1` [Example 419, N-(4-Fluoro-3-{[(3S)-1-(2,2,2-trifluoroethyl)piperidin-3-yl]methoxy}phenyl)-3-methyl-5-{[5-(trifluoromethyl)pyrazin-2-yl]amino}-1,2-thiazole-4-carboxamide], the IC50 in experiment [1] came to 38 nM; in experiment [2], 130 nM.
With `Cc1nsc(Nc2cnc(C(F)(F)F)cn2)c1C(=O)Nc1ccc(F)c(O[C@@H]2CCN(CCC(F)(F)F)C2)c1` [Example 414, N-(4-Fluoro-3-{[(3R)-1-(3,3,3-trifluoropropyl)pyrrolidin-3-yl]oxy}phenyl)-3-methyl-5-{[5-(trifluoromethyl)pyrazin-2-yl]amino}-1,2-thiazole-4-carboxamide], the IC50 was 39 nM in experiment [1] and 44 nM in experiment [2].
For `Cc1nsc(Nc2cnc(C(F)(F)F)cn2)c1C(=O)Nc1ccc(F)c(OC[C@H]2CCCN(CCC(F)(F)F)C2)c1` [Example 418, N-(4-Fluoro-3-{[(3S)-1-(3,3,3-trifluoropropyl)piperidin-3-yl]methoxy}phenyl)-3-methyl-5-{[5-(trifluoromethyl)pyrazin-2-yl]amino}-1,2-thiazole-4-carboxamide], the IC50 is 210 nM in experiment [1] and 140 nM in experiment [2].
Take `COCCOc1ccc(NC(=O)c2c(C)nsc2Nc2nc3c(C(F)(F)F)cccc3s2)cn1` [Example 3, N-[6-(2-Methoxyethoxy)pyridin-3-yl]-3-methyl-5-{[4-(trifluoromethyl)-1,3-benzo-thiazol-2-yl]amino}-1,2-thiazole-4-carboxamide]: the IC50 amounted to 230 nM in experiment [1] and 130 nM in experiment [2].
The matching figures for `Cc1nsc(Nc2cc(C#N)ccn2)c1C(=O)Nc1ccc(OC2CCCNC2)nc1` (stereo not shown) [Example 35, 5-[(4-Cyanopyridin-2-yl)amino]-3-methyl-N-[6-(piperidin-3-yloxy)pyridin-3-yl]-1,2-thiazole-4-carboxamide]: 15000 nM and 20000 nM.
In the case of `Cc1nsc(Nc2cnc(C(F)(F)F)cn2)c1C(=O)Nc1ccc(F)c(OCCCNC(=O)C(F)(F)F)c1` [Example 427, N-(4-Fluoro-3-{3-[(trifluoroacetyl)amino]propoxy}phenyl)-3-methyl-5-{[5-(trifluoro-methyl)pyrazin-2-yl]amino}-1,2-thiazole-4-carboxamide], the IC50 in experiment [1] is 700 nM; in experiment [2], 920 nM.
Take `Cc1nsc(Nc2cnc3ccccc3n2)c1C(=O)Nc1cccc(C(=O)N[C@H](C(=O)OC(C)(C)C)[C@@H](C)OC(C)(C)C)c1` [Example 57, tert-Butyl O-tert-butyl-N-[3-({[3-methyl-5-(quinoxalin-2-ylamino)-1,2-thiazol-4 yl]carbonyl}amino)-benzoyl]threoninate]: the IC50 is 340 nM in experiment [1] and 1200 nM in experiment [2].
`Cc1nsc(Nc2cnc(C(F)(F)F)cn2)c1C(=O)Nc1ccc(O[C@@H]2CN(CC(F)(F)F)C[C@@H]2F)nc1` [Example 410, N-(6-{[(3R,4S)-4-Fluoro-1-(2,2,2-trifluoroethyl)pyrrolidin-3-yl]oxy}pyridin-3-yl)-3-methyl-5-{[5-(trifluoromethyl)pyrazin-2-yl]amino}-1,2-thiazole-4-carboxamide]: the IC50 in experiment [1] was determined as 10 nM; in experiment [2], 42 nM.
Turning to `Cc1nsc(Nc2cnc3ccccc3n2)c1C(=O)Nc1cccc(C(=O)OC(C)(C)C)c1` [Example 49, tert-Butyl 3-({[3-methyl-5-(quinoxalin-2-ylamino)-1,2-thiazol-4-yl]carbonyl}amino)-benzoate], the IC50 amounted to 29 nM in experiment [1] and 410 nM in experiment [2].
As to `Cc1nsc(Nc2cnc(C(F)(F)F)cn2)c1C(=O)Nc1ccc(CCC2CCN(CCC(F)(F)F)CC2)nc1` [Example 420, 3-Methyl-5-{[5-(trifluoromethyl)pyrazin-2-yl]amino}-N-(6-{2-[1-(3,3,3-trifluoro-propyl)piperidin-4-yl]ethyl}pyridin-3-yl)-1,2-thiazole-4-carboxamide], the IC50 in experiment [1] is 120 nM; in experiment [2], 240 nM.
In the case of `Cc1nsc(Nc2ccc(C#N)cn2)c1C(=O)Nc1ccc(OC2CCCN(CC(F)F)C2)nc1` (stereo not shown) [Example 39, 5-[(5-Cyanopyridin-2-yl)amino]-N-(6-{[1-(2,2-difluoroethyl)piperidin-3-yl]oxy}-pyridin-3-yl)-3-methyl-1,2-thiazole-4-carboxamide], the IC50 in experiment [1] was 15 nM; in experiment [2], 24 nM.
Consider `Cc1nsc(Nc2cnc3ccccc3n2)c1C(=O)Nc1cccc(C(=O)N[C@@H](CCC(N)=O)C(=O)OC(C)(C)C)c1` [Example 56, tert-butyl N^2-[3-({[3-methyl-5-(quinoxalin-2-ylamino)-1,2-thiazol-4-yl]carbonyl}amino)-benzoyl]glutaminate], for which the IC50 in experiment [1] was 1200 nM; in experiment [2], 4300 nM.
`Cc1nsc(Nc2cnc3ccccc3n2)c1C(=O)Nc1cccc(C(=O)NC(C)(C)C)c1` [Example 53, N-[3-(tert-Butylcarbamoyl)-phenyl]-3-methyl-5-(quinoxalin-2-ylamino)-1,2-thiazole-4-carboxamide]: the IC50 is 950 nM in experiment [1] and 1100 nM in experiment [2].
In the case of `Cc1nsc(Nc2ccc(C#N)cn2)c1C(=O)Nc1ccc(OC2CCCN(C(=O)OC(C)(C)C)C2)nc1` (stereo not shown) [Example 36, tert-Butyl 3-({5-[({5-[(5-cyanopyridin-2-yl)amino]-3-methyl-1,2-thiazol-4-yl}-carbonyl)amino]pyridin-2-yl}oxy)piperidine-1-carboxylate], the IC50 in experiment [1] worked out at 210 nM; in experiment [2], 590 nM.
For the compound `CC(=O)Nc1ccc(NC(=O)c2c(C)nsc2Nc2ccc(C#N)cn2)cn1` [Example 435, N-(6-Acetamidopyridin-3-yl)-5-[(5-cyanopyridin-2-yl)amino]-3-methyl-1,2-thiazole-4-carboxamide], the IC50 in experiment [1] is 12000 nM; in experiment [2] it was 20000 nM.
For `CCCN1C[C@H](F)[C@H](Oc2ccc(NC(=O)c3c(C)nsc3Nc3cnc(C(F)(F)F)cn3)cn2)C1` [Example 408, N-(6-{[(3R,4S)-4-Fluoro-1-propylpyrrolidin-3-yl]oxy}pyridin-3-yl)-3-methyl-5-{[5-(trifluoromethyl)pyrazin-2-yl]amino}-1,2-thiazole-4-carboxamide], in that order: 3.1 nM and 47 nM.
Take `Cc1nsc(Nc2cnc3ccccc3n2)c1C(=O)Nc1ccc(OCCCNC(=O)OC(C)(C)C)nc1` [Example 42, tert-Butyl (3-{[5-({[3-methyl-5-(quinoxalin-2-ylamino)-1,2-thiazol-4-yl]carbonyl}-amino)pyridin-2-yl]oxy}propyl)carbamate]: the IC50 was 820 nM in experiment [1] and 1700 nM in experiment [2].
On to `Cc1nsc(Nc2cnc(C(F)(F)F)cn2)c1C(=O)Nc1ccc(O[C@@H]2CN(CC(F)F)C[C@@H]2F)nc1` [Example 411, N-(6-{[(3R,4S)-1-(2,2-Difluoroethyl)-4-fluoropyrrolidin-3-yl]oxy}pyridin-3-yl)-3-methyl-5-{[5-(trifluoromethyl)pyrazin-2-yl]amino}-1,2-thiazole-4-carboxamide], for which the IC50 turned out to be 24 nM in experiment [1] and 39 nM in experiment [2].
For the compound `Cc1nsc(Nc2nc3c(C(F)(F)F)cccc3s2)c1C(=O)Nc1ccc(OCCO)nc1` [Example 2, N-[6-(2-Hydroxyethoxy)pyridin-3-yl]-3-methyl-5-{[4-(trifluoromethyl)-1,3-benzo-thiazol-2-yl]amino}-1,2-thiazole-4-carboxamide], the IC50 in experiment [1] was found to be 560 nM; in experiment [2] it was 460 nM.
Regarding `Cc1nsc(Nc2cnc3ccccc3n2)c1C(=O)Nc1cccc(C(=O)NCC(=O)OC(C)(C)C)c1` [Example 54, tert-Butyl N-[3-({[3-methyl-5-(quinoxalin-2-ylamino)-1,2-thiazol-4-yl]carbonyl}amino)-benzoyl]glycinate], the results for the IC50 in experiment [1] and in experiment [2] were 990 nM and 1300 nM, respectively.
